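How tested: cells in 96-well plates exposed to compound for 48 hours at five concentrations. GI50 is the concentration that inhibits growth by half. TGI marks complete inhibition of growth.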
What was measured:
Assay in all cases: NCI tumour cell line growth inhibition, 48 h
[1] = tested on: PC-3 prostate
[2] = tested on: SK-MEL-5 melanoma
[3] = tested on: A549 NSCLC
[4] = tested on: DU-145 prostate
[5] = tested on: T-47D breast
[6] = tested on: MOLT-4 leukemia
[7] = tested on: SK-MEL-28 melanoma
[8] = tested on: HOP-92 NSCLC
[9] = tested on: NCI-H226 lung
[10] = tested on: SF-295 CNS
[11] = tested on: OVCAR-4 ovarian
[12] = tested on: SW-620 colon
[13] = tested on: MCF7 breast
[14] = tested on: SNB-19 CNS
[15] = tested on: NCI/ADR-RES ovarian
[16] = tested on: IGROV1 ovarian
[17] = tested on: NCI-H460 lung
[18] = tested on: SF-539 CNS
[19] = tested on: MALME-3M melanoma
[20] = tested on: SF-268 CNS
[21] = tested on: UACC-257 melanoma
[22] = tested on: SNB-75 CNS
[23] = tested on: OVCAR-3 ovarian
[24] = tested on: HT29 colon
[25] = tested on: TK-10 renal
[26] = tested on: RPMI-8226 leukemia
[27] = tested on: KM12 colon
[28] = tested on: RXF 393 renal
[29] = tested on: OVCAR-8 ovarian
[30] = tested on: UO-31 renal
[31] = tested on: OVCAR-5 ovarian
[32] = tested on: COLO 205 colon
[33] = tested on: A498 renal
[34] = tested on: MDA-MB-435
[35] = tested on: K-562 leukemia
[36] = tested on: EKVX NSCLC
[37] = tested on: LOX IMVI melanoma
[38] = tested on: SR leukemia
[39] = tested on: HL-60(TB) leukemia
[40] = tested on: CCRF-CEM leukemia
[41] = tested on: 786-0 renal
[42] = tested on: HS 578T breast
[43] = tested on: M14 melanoma
[44] = tested on: HOP-62 NSCLC
[45] = tested on: UACC-62 melanoma
[46] = tested on: BT-549 breast
[47] = tested on: SK-OV-3 ovarian
[48] = tested on: SN12C renal
[49] = tested on: NCI-H522 lung
[50] = tested on: HCT-15 colon
[51] = tested on: SK-MEL-2 melanoma
[52] = tested on: ACHN renal
[53] = tested on: NCI-H23 lung
[54] = tested on: HCC-2998 colon
[55] = tested on: CAKI-1 renal
[56] = tested on: U251 CNS
[57] = tested on: HCT-116 colon

With `O=C(CSc1nnc(-c2ccc(Cl)cc2)n1-c1ccccc1)Nc1ccc(Cl)cc1` the GI50 [1] was 20.1 µM, the TGI [1] was over 100 µM and the GI50 [2] was 8.07 µM. It also gave a TGI [2] of over 100 µM, a GI50 [3] of 3.67 µM and a TGI [3] of over 100 µM. It also gave a GI50 [4] of 7.41 µM, a TGI [4] of over 100 µM and a GI50 [5] of 3.2 µM. For the same molecule, the TGI [5] was over 100 µM, the GI50 [6] was over 100 µM and the TGI [6] was over 100 µM. For the same molecule, the GI50 [7] was 15.4 µM, the TGI [7] was over 100 µM and the GI50 [8] was 2.72 µM. For the same molecule, the TGI [8] was 9.6 µM, the GI50 [9] was 3.2 µM and the TGI [9] was 20.8 µM. It also gave a GI50 [10] of 5.56 µM, a TGI [10] of 21.1 µM and a GI50 [11] of 3.38 µM. For the same molecule, the TGI [11] was over 100 µM, the GI50 [12] was 8.68 µM and the TGI [12] was over 100 µM. It also gave a GI50 [13] of 5.76 µM, a TGI [13] of over 100 µM and a GI50 [14] of 7.08 µM. For the same molecule, the TGI [14] was over 100 µM, the GI50 [15] was 4.06 µM and the TGI [15] was over 100 µM. For the same molecule, the GI50 [16] was 5.24 µM, the TGI [16] was over 100 µM and the GI50 [17] was 2.77 µM. For the same molecule, the TGI [17] was 8.09 µM, the GI50 [18] was 2.38 µM and the TGI [18] was 5.18 µM. The GI50 [19] was 3.67 µM, the TGI [19] was 22.3 µM and the GI50 [20] was 4.85 µM. It also gave a TGI [20] of over 100 µM, a GI50 [21] of 39.8 µM and a TGI [21] of over 100 µM. The GI50 [22] was 1.57 µM, the TGI [22] was 4.57 µM and the GI50 [23] was 6.2 µM. For the same molecule, the TGI [23] was 57.8 µM, the GI50 [24] was 7.79 µM and the TGI [24] was over 100 µM. For the same molecule, the GI50 [25] was 2.2 µM, the TGI [25] was 5.76 µM and the GI50 [26] was 4.14 µM. For the same molecule, the TGI [26] was over 100 µM, the GI50 [27] was 47.1 µM and the TGI [27] was over 100 µM. For the same molecule, the GI50 [28] was 2.03 µM, the TGI [28] was 4.98 µM and the GI50 [29] was 3.79 µM. It also gave a TGI [29] of 29.9 µM, a GI50 [30] of 1.83 µM and a TGI [30] of 5.2 µM. The GI50 [31] was 4.89 µM, the TGI [31] was over 100 µM and the GI50 [32] was 15.7 µM. It also gave a TGI [32] of over 100 µM, a GI50 [33] of 1.88 µM and a TGI [33] of 5.15 µM. For the same molecule, the GI50 [34] was 21.5 µM, the TGI [34] was over 100 µM and the GI50 [35] was 13.4 µM. The TGI [35] was over 100 µM, the GI50 [36] was 20.9 µM and the TGI [36] was over 100 µM. The GI50 [37] was 2.98 µM, the TGI [37] was 10.2 µM and the GI50 [38] was 4.28 µM. The TGI [38] was over 100 µM, the GI50 [39] was over 100 µM and the TGI [39] was over 100 µM. It also gave a GI50 [40] of over 100 µM, a TGI [40] of over 100 µM and a GI50 [41] of 1.92 µM. For the same molecule, the TGI [41] was 4.09 µM, the GI50 [42] was 3.52 µM and the TGI [42] was over 100 µM. For the same molecule, the GI50 [43] was 25.1 µM, the TGI [43] was over 100 µM and the GI50 [44] was 3.34 µM. For the same molecule, the TGI [44] was 16 µM, the GI50 [45] was 4.81 µM and the TGI [45] was over 100 µM. For the same molecule, the GI50 [46] was 3.66 µM, the TGI [46] was 38.8 µM and the GI50 [47] was 4.53 µM. It also gave a TGI [47] of 17.3 µM, a GI50 [48] of 3.19 µM and a TGI [48] of over 100 µM. The GI50 [49] was 3.11 µM, the TGI [49] was 17.2 µM and the GI50 [50] was 87.1 µM. It also gave a TGI [50] of over 100 µM, a GI50 [51] of 13.6 µM and a TGI [51] of 63.8 µM. It also gave a GI50 [52] of 1.76 µM, a TGI [52] of 3.98 µM and a GI50 [53] of 5.09 µM. It also gave a TGI [53] of 43.7 µM, a GI50 [54] of 43.9 µM and a TGI [54] of over 100 µM. For the same molecule, the GI50 [55] was 2.95 µM, the TGI [55] was 13 µM and the GI50 [56] was 3.2 µM. For the same molecule, the TGI [56] was 11.5 µM, the GI50 [57] was 1.98 µM and the TGI [57] was 4.29 µM.

Source: PubChem BioAssay (NCI)
